Data published in patent publication US9238631B2, “Radiolabeled amino acids for diagnostic imaging” (PIRAMAL IMAGING SA, priority 2011, dated 2016).

Test system: NCI-H460 tumor
Test: In vivo biodistribution in NCI-H460 tumor bearing mice
Parameters: Summary: organs / Summary: Carcass / Summary: faeces: unit not given here
Details: for Summary: urine: in %; for Summary: Recovery: in % (unit assumed)
How it was run: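 Biodistribution of 18F-labeled compounds was assessed in female NMRI (nu/nu) mice bearing NCI-H460 tumors, established by inoculating 5×10^6 cells 8 to 10 days beforehand. Each mouse received 185 kBq of the fluorinated tracer; at least n=3 animals per time point were sacrificed, organs excised, and radioactivity quantified with a γ-counter.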

- Pancreas uptake (% ID/g) (0.25 h p.i.): 11.45 % ID/g
- Pancreas (% ID/g at 1 h p.i.) (1 h p.i.): 3.62 % ID/g
- Tumor (% ID/g at 1 h p.i.) (1 h p.i.): 6.47 % ID/g
- Urine (% ID at 1 h p.i.) (1 h p.i.): 82.1 ± 7.3 % ID
- activity excreted (kidneys/urine) (1 h p.i.): 82.1%
- tumor-to-pancreas ratio (1 h p.i.): 1.8
- T/Blood (1 h post injection): 33.9
- T/Muscle (1 h post injection): 103.4
- Tumor uptake (% ID/g) (2 h p.i.): 7.21 % ID/g
- Tumor uptake (% ID/g) (4 h p.i.): 5.17 % ID/g
- tumor uptake and retention (summary statement) (mouse, in vivo): high tumor uptake and retention
- Adrenals (% Dosis/g) (timepoint 0.25 h): 0.69 % Dosis/g
- Blood (% Dosis/g) (timepoint 0.25 h): 1.28 % Dosis/g
- Bone (% Dosis/g) (timepoint 0.25 h): 0.39 % Dosis/g
- Brain (% Dosis/g) (timepoint 0.25 h): 0.09 % Dosis/g
- Fat (% Dosis/g) (timepoint 0.25 h): 0.16 % Dosis/g
- Gallbladder (% Dosis/g) (timepoint 0.25 h): 2.53 % Dosis/g
- Heart (% Dosis/g) (timepoint 0.25 h): 0.58 % Dosis/g
- Intestine (% Dosis/g) (timepoint 0.25 h): 1.10 % Dosis/g
- Liver (% Dosis/g) (timepoint 0.25 h): 9.02 % Dosis/g
- Muscle (% Dosis/g) (timepoint 0.25 h): 0.26 % Dosis/g
- Ovaries (% Dosis/g) (timepoint 0.25 h): 1.25 % Dosis/g
- Pancreas (% Dosis/g) (timepoint 0.25 h): 11.45 % Dosis/g
- Skin (% Dosis/g) (timepoint 0.25 h): 1.58 % Dosis/g
- Spleen (% Dosis/g) (timepoint 0.25 h): 2.49 % Dosis/g
- Stomach (% Dosis/g) (timepoint 0.25 h): 3.08 % Dosis/g
- Summary: Carcass (timepoint 0.25 h): 9.55
- Summary: organs (timepoint 0.25 h): 36.92
- Tail (% Dosis/g) (timepoint 0.25 h): 3.02 % Dosis/g
- Thyroid (% Dosis/g) (timepoint 0.25 h): 0.78 % Dosis/g
- Tumor (% Dosis/g) (timepoint 0.25 h): 5.55 % Dosis/g
- Tumor/Tissue: Adrenals (timepoint 0.25 h): 8.53
- Tumor/Tissue: Blood (timepoint 0.25 h): 4.49
- Tumor/Tissue: Bone (timepoint 0.25 h): 14.61
- Tumor/Tissue: Brain (timepoint 0.25 h): 62.27
- Tumor/Tissue: Fat (timepoint 0.25 h): 37.81
- Tumor/Tissue: Gallbladder (timepoint 0.25 h): 2.19
- Tumor/Tissue: Heart (timepoint 0.25 h): 9.67
- Tumor/Tissue: Intestine (timepoint 0.25 h): 4.93
- Tumor/Tissue: Kidney (timepoint 0.25 h): 0.36
- Tumor/Tissue: Liver (timepoint 0.25 h): 0.62
- Tumor/Tissue: Lung (timepoint 0.25 h): 3.79
- Tumor/Tissue: Muscle (timepoint 0.25 h): 20.90
- Tumor/Tissue: Ovaries (timepoint 0.25 h): 4.55
- Tumor/Tissue: Pancreas (timepoint 0.25 h): 0.49
- Tumor/Tissue: Skin (timepoint 0.25 h): 3.71
- Tumor/Tissue: Spleen (timepoint 0.25 h): 2.27
- Tumor/Tissue: Stomach (timepoint 0.25 h): 1.75
- Tumor/Tissue: Thyroid (timepoint 0.25 h): 7.48
- Tumor/Tissue: Uterus (timepoint 0.25 h): 2.31
- Uterus (% Dosis/g) (timepoint 0.25 h): 2.54 % Dosis/g
- Summary: urine (timepoint 0.25 h): 50.49
- Summary: Recovery (timepoint 0.25 h): 96.96
- Adrenals (% Dosis/g) (timepoint 0.5 h): 0.57 % Dosis/g
- Blood (% Dosis/g) (timepoint 0.5 h): 0.74 % Dosis/g
- Bone (% Dosis/g) (timepoint 0.5 h): 0.30 % Dosis/g
- Brain (% Dosis/g) (timepoint 0.5 h): 0.07 % Dosis/g
- Fat (% Dosis/g) (timepoint 0.5 h): 0.12 % Dosis/g
- Gallbladder (% Dosis/g) (timepoint 0.5 h): 5.25 % Dosis/g
- Heart (% Dosis/g) (timepoint 0.5 h): 0.38 % Dosis/g
- Intestine (% Dosis/g) (timepoint 0.5 h): 4.00 % Dosis/g
- Liver (% Dosis/g) (timepoint 0.5 h): 5.93 % Dosis/g
- Muscle (% Dosis/g) (timepoint 0.5 h): 0.15 % Dosis/g
- Ovaries (% Dosis/g) (timepoint 0.5 h): 1.06 % Dosis/g
- Pancreas (% Dosis/g) (timepoint 0.5 h): 9.94 % Dosis/g
- Skin (% Dosis/g) (timepoint 0.5 h): 1.08 % Dosis/g
- Spleen (% Dosis/g) (timepoint 0.5 h): 1.94 % Dosis/g
- Stomach (% Dosis/g) (timepoint 0.5 h): 4.18 % Dosis/g
- Summary: Carcass (timepoint 0.5 h): 7.31
- Summary: faeces (timepoint 0.5 h): 0.10
- Summary: organs (timepoint 0.5 h): 33.35
- Tail (% Dosis/g) (timepoint 0.5 h): 1.81 % Dosis/g
- Thyroid (% Dosis/g) (timepoint 0.5 h): 0.65 % Dosis/g
- Tumor (% Dosis/g) (timepoint 0.5 h): 6.91 % Dosis/g
- Tumor/Tissue: Adrenals (timepoint 0.5 h): 13.61
- Tumor/Tissue: Blood (timepoint 0.5 h): 9.81
- Tumor/Tissue: Bone (timepoint 0.5 h): 22.54
- Tumor/Tissue: Brain (timepoint 0.5 h): 92.44
- Tumor/Tissue: Fat (timepoint 0.5 h): 64.26
- Tumor/Tissue: Gallbladder (timepoint 0.5 h): 1.36
- Tumor/Tissue: Heart (timepoint 0.5 h): 20.04
- Tumor/Tissue: Intestine (timepoint 0.5 h): 4.66
- Tumor/Tissue: Kidney (timepoint 0.5 h): 0.79
- Tumor/Tissue: Liver (timepoint 0.5 h): 1.27
- Tumor/Tissue: Lung (timepoint 0.5 h): 7.67
- Tumor/Tissue: Muscle (timepoint 0.5 h): 45.35
- Tumor/Tissue: Ovaries (timepoint 0.5 h): 6.59
- Tumor/Tissue: Pancreas (timepoint 0.5 h): 0.68
- Tumor/Tissue: Skin (timepoint 0.5 h): 6.42
- Tumor/Tissue: Spleen (timepoint 0.5 h): 3.60
- Tumor/Tissue: Stomach (timepoint 0.5 h): 2.18
- Tumor/Tissue: Thyroid (timepoint 0.5 h): 10.73
- Tumor/Tissue: Uterus (timepoint 0.5 h): 5.85
- Uterus (% Dosis/g) (timepoint 0.5 h): 1.38 % Dosis/g
- Summary: urine (timepoint 0.5 h): 57.06
- Summary: Recovery (timepoint 0.5 h): 97.82
- Adrenals (% Dosis/g) (timepoint 1.0 h): 0.27 % Dosis/g
- Blood (% Dosis/g) (timepoint 1.0 h): 0.19 % Dosis/g
- Bone (% Dosis/g) (timepoint 1.0 h): 0.16 % Dosis/g
- Brain (% Dosis/g) (timepoint 1.0 h): 0.05 % Dosis/g
- Fat (% Dosis/g) (timepoint 1.0 h): 0.03 % Dosis/g
- Gallbladder (% Dosis/g) (timepoint 1.0 h): 8.20 % Dosis/g
- Heart (% Dosis/g) (timepoint 1.0 h): 0.11 % Dosis/g
- Intestine (% Dosis/g) (timepoint 1.0 h): 0.91 % Dosis/g
- Liver (% Dosis/g) (timepoint 1.0 h): 2.17 % Dosis/g
- Muscle (% Dosis/g) (timepoint 1.0 h): 0.07 % Dosis/g
- Ovaries (% Dosis/g) (timepoint 1.0 h): 0.79 % Dosis/g
- Pancreas (% Dosis/g) (timepoint 1.0 h): 3.62 % Dosis/g
- Skin (% Dosis/g) (timepoint 1.0 h): 0.61 % Dosis/g
- Spleen (% Dosis/g) (timepoint 1.0 h): 1.54 % Dosis/g
- Stomach (% Dosis/g) (timepoint 1.0 h): 0.94 % Dosis/g
- Summary: Carcass (timepoint 1.0 h): 3.58
SMILES: N[C@@H](CCC(Cc1ccc(OCC[18F])cc1)C(=O)O)C(=O)O (stereo partly drawn) [[^18F]-12] [(2S)-2-Amino-5-[4-(2-[^18F]fluoroethoxy)benzyl]hexanedioic acid]
